Source: DBAASP

Tests used:
Assay in all cases: ≥ marks a high value that may be exact or a test limit, other limits are often not marked, values filed in µg/mL are converted to µM
[1] = system: Enterococcus faecalis ATCC 29212
[2] = system: Pseudomonas aeruginosa 198
[3] = system: Pseudomonas aeruginosa H1027
[4] = system: Escherichia coli ESBL 63103
[5] = system: Enterococcus faecalis W61950
[6] = system: Enterococcus faecalis f43559
[7] = system: Enterobacter cloacae 218R
[8] = system: Staphylococcus aureus C623
[9] = system: Pseudomonas aeruginosa H1030
[10] = system: Enterococcus faecium mic80
[11] = system: Stenotrophomonas maltophilia ATCC 13637
[12] = system: Escherichia coli ESBL 64771
[13] = system: Staphylococcus aureus ATCC 25923
[14] = system: Pseudomonas aeruginosa PAO1 H103
[15] = system: Enterococcus faecium t62764
[16] = system: Klebsiella pneumoniae ESBL 61962
[17] = system: Klebsiella pneumoniae ESBL 63575
[18] = system: Pseudomonas aeruginosa LES400
Pseudomonas aeruginosa 9 = system: Pseudomonas aeruginosa 9
[19] = system: Pseudomonas aeruginosa 213
[20] = system: Erwinia amylovora PMV 6076
[21] = system: Trichophyton mentagrophytes
[22] = system: Cryptococcus neoformans L30
[23] = system: Klebsiella pneumoniae ATCC 13885
[24] = system: Cryptococcus neoformans L26
[25] = system: Pseudomonas aeruginosa ATCC 15442
[26] = system: Streptococcus pyogenes ATCC 19615
[27] = system: Salmonella enterica subsp. enterica serovar Typhimurium ATCC 14028
[28] = system: Xanthomonas arboricola pv. pruni CFBP 5563
[29] = system: Xanthomonas campestris pv. Vesicatoria 2133-2
[30] = system: Proteus mirabilis ATCC 25933
[31] = system: Enterococcus faecalis ATCC 12953
[32] = system: Pseudomonas syringae pv. actinidiae Psa3700.1.1
[33] = system: Escherichia coli ATCC 8739
Candida albicans 01U = system: Candida albicans 01U
[34] = system: Candida parapsilosis ATCC 22019
[35] = system: Pseudomonas syringae pv. syringae EPS 94
Trichophyton rubrum = system: Trichophyton rubrum
[36] = system: Bacillus subtilis ATCC 6633
[37] = system: Xanthomonas fragariae Xf349-9A
[38] = system: Staphylococcus aureus ATCC 29213
Candida albicans 38U = system: Candida albicans 38U
[39] = system: Streptococcus pneumoniae ATCC 49619
[40] = system: Salmonella typhimurium ATCC 50013
[41] = system: Pseudomonas aeruginosa ATCC 27553
[42] = system: Bacillus subtilis ATCC 23631
[43] = system: Shigella dysenteriae ATCC 51302
[44] = system: Micrococcus luteus ATCC 9341
[45] = system: Escherichia coli ATCC 2592
[46] = system: Pseudomonas aeruginosa ATCC 9027
[47] = system: Staphylococcus aureus ATCC 6538
Staphylococcus aureus = system: Staphylococcus aureus
[48] = system: Shigella flexneri ATCC 203
[49] = system: Candida albicans ATCC 36232
[50] = system: Staphylococcus epidermidis ATCC 12228
[51] = system: Corynebacterium diphtheriae ATCC 8024

Measured: MIC

CC[C@H](C)[C@H](NC(=O)[C@H](CCCN=C(N)N)NC(=O)[C@@H](N)CCCCN)C(=O)N[C@@H](CCSC)C(=O)N[C@@H](CCCCN)C(=O)N[C@@H](CC(C)C)C(=O)N[C@@H](CCCCN)C(=O)N[C@@H](CCSC)C(=O)N[C@@H](CCCN=C(N)N)C(=O)O [KRIMKLKMR]
> 226 µM: [1] | [13]
≥ 226 µM: [2] | [3] | [4] | [5] | [6] | [7] | [8] | [9] | [10] | [11] | [12] | [14] | [15] | [16] | [17] | [18] | Pseudomonas aeruginosa 9 | [19]

CSCC[C@H](NC(=O)CNC(=O)[C@H](CCC(N)=O)NC(=O)[C@H](C)NC(=O)[C@H](CCCN=C(N)N)NC(=O)CNC(=O)[C@H](C)NC(=O)[C@@H](NC(=O)[C@@H](N)CO)C(C)C)C(N)=O [SVAGRAQGM]
9 µM: [23] | [25]
18 µM: [21] | [27] | [30] | [33] | Candida albicans 01U | Trichophyton rubrum | [38] | Candida albicans 38U
≥ 50 µM: [20] | [28] | [29] | [32] | [35] | [37]
≥ 36 µM: [26] | [31] | [36]
≥ 144 µM: [22] | [24] | [34]

CC(C)C[C@H](NC(=O)CNC(=O)[C@H](CC(C)C)NC(=O)[C@H](Cc1ccccc1)NC(=O)[C@@H](NC(=O)[C@@H](N)CCCCN)C(C)C)C(=O)N[C@@H](CCCCN)C(=O)O [KVFLGLK]
≥ 50 µM: [20] | [28] | [29] | [32] | [35] | [37]
49.7 µM: [13]
≥ 79.6 µM: [41]
≥ 69.6 µM: [39]
29.8 µM: [42]
≥ 59.7 µM: [40] | [43]

CC(C)[C@H](NC(=O)[C@H](CS)NC(=O)[C@@H](NC(=O)[C@H](CCCN=C(N)N)NC(=O)[C@H](CCCCN)NC(=O)CNC(=O)[C@H](CC(N)=O)NC(=O)[C@@H](N)CS)C(C)C)C(=O)N[C@@H](CS)C(N)=O [CNGKRVCVC]
> 102 µM: [46] | [47] | Staphylococcus aureus | [50]
≥ 102 µM: [44] | [45] | [48] | [49] | [36] | [51]
